The values that follow come from ChEMBL document CHEMBL3745672, “Novel compounds reducing IRS-1 serine phosphorylation for treatment of diabetes” (Bioorg Med Chem Lett, 2016).

A word on the IC50: it is the concentration that inhibits the measured activity by half. The inhibition is the share of the control response that was lost under treatment.

One assay concerns HEK293. Briefly: Cytotoxicity against HEK293 after 24 hrs by CellTiter-Glo luminescent cell viability assay. Format: cell-based. Conditions: Homo sapiens, HEK293, 24 h.
Assay [1] addresses T1, Mitogen-activated protein kinase 8 (Homo sapiens, UniProt P45983). Briefly: Inhibition of JNK1 (unknown origin) expressed in HEK293 cells assessed as anisomycin-induced IRS-1(Ser307) phosphorylation at 10 uM incubated for 30 mins by Western blot analysis relative to anisomycin. Format: cell-based. The arrangement: scale not given: the % may be the effect or the level left. Background: A western blot detects proteins with antibodies after separation by electrophoresis.

Assay [2] has as its target T1, Mitogen-activated protein kinase 8. Briefly: Inhibition of JNK1 (unknown origin) expressed in HEK293 cells assessed as anisomycin-induced c-Jun phosphorylation at 10 uM incubated for 30 mins by Western blot analysis relative to anisomycin. Format: cell-based. Details: scale not given: the % may be the effect or the level left.
For assay [3] the target is unchanged. Nature of the assay: Inhibition of JNK1 (unknown origin).
The target is the same in assay [4]. Nature of the assay: Inhibition of JNK1 (unknown origin) expressed in HEK293 cells assessed as anisomycin-induced JNK phosphorylation at 10 uM incubated for 30 mins by Western blot analysis relative to anisomycin. The assay is classed as cell-based. The arrangement: scale not given: the % may be the effect or the level left.
Assay [5] concerns the target Mitogen-activated protein kinase 8 (Rattus norvegicus) (UniProt P49185). Briefly: Inhibition of albumin-conjugated palmitate-induced JNK1/2 phosphorylation assessed as JNK phosphorylation level in rat RINm5F cells incubated for 8 hrs. Format: cell-based.
For assay [6] the target is unchanged. Nature of the assay: Inhibition of JNK1 phosphorylation in rat RINm5F cells assessed as suppression of albumin-conjugated palmitate-induced IRS-1 Ser307 phosphorylation incubated for 8 hrs. The assay is classed as cell-based. The arrangement: concentration or dose not given beside the values. Conditions: concentration not given here.

The source made the active and inactive calls. The calls are words filed in the database; no cut-off is given here.

Mitogen-activated protein kinase 8 (Rattus norvegicus), sequence (P49185 whole entry): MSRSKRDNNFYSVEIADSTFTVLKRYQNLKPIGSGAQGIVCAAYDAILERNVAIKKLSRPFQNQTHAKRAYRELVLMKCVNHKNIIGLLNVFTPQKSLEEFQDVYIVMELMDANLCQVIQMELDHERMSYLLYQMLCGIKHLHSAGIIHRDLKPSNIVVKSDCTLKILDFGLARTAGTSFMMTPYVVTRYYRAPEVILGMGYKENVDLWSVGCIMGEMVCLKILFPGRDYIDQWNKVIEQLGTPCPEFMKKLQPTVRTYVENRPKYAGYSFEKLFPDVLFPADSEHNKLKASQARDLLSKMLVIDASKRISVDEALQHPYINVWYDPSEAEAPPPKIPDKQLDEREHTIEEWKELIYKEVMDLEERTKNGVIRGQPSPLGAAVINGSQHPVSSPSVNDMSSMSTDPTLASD
T1 sequence (P45983 whole entry): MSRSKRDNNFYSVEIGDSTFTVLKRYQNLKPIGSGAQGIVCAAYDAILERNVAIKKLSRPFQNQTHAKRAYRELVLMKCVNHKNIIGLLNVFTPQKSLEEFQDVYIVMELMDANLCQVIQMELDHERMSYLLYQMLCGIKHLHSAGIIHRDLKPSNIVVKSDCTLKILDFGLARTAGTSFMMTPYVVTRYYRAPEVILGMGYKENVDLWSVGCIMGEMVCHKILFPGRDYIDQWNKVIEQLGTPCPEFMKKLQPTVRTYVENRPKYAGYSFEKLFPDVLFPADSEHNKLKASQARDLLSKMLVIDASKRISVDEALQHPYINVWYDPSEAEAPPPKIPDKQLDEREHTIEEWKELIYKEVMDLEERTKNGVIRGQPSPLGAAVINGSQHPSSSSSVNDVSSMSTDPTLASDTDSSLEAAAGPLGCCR

`O=C(O)c1ccccc1Nc1ccnc(Nc2cccc(O)c2)n1` showed an IC50 with HEK293 of over 30 µM. Also, the figures for the Activity in assay [1] and in assay [2] were 161% and 88%, respectively.

For `Cn1c(=O)c(Oc2c(Cl)cccc2Cl)cc2cnc(NC3CCCC3)nc21`, the IC50 in the assay with HEK293 was over 30 µM; in assay [3], 19.3 µM. The Activity worked out at 8.18% in assay [1], 115% in assay [2] and 108% in assay [4].

For `Cn1c(=O)c(Oc2ccc(F)cc2F)cc2cnc(Nc3ccc(N4CCCC4)cc3)nc21`, the results for the IC50 (with HEK293; in assay [3]) were over 30 µM and over 23 µM, respectively. Further, the Activity amounted to 98.9% in assay [1], 108% in assay [2] and 98.9% in assay [4].

Consider `Cn1c(=O)c(Oc2ccc(F)cc2F)cc2cnc(N3CCC(O)CC3)nc21`, for which the results for the IC50 (in the assay on HEK293; in assay [3]) were over 30 µM and over 23 µM, respectively. For the same compound, the Activity was 124% in assay [1], 131% in assay [2] and 122% in assay [4].

Consider `Cn1c(=O)c(Oc2ccc(F)cc2F)cc2cnc(NCc3cccc(C(F)(F)F)c3)nc21`, for which the figures for the IC50 (with HEK293; in assay [3]) were over 30 µM and over 23 µM, respectively. The Activity in assay [1] came out at 0%; in assay [2] it was 101%; in assay [4] it was 94.1%.

`Cn1c(=O)c(Oc2c(Cl)cccc2Cl)cc2cnc(NC3CC3)nc21`: the half-maximal inhibitory concentration (IC50) is over 30 µM with HEK293 and 14.9 µM in assay [3]. The Activity is 14.7% in assay [1], 128% in assay [2] and 96.1% in assay [4].

As to `Cn1c(=O)c(Oc2ccc(F)cc2F)cc2cnc(N3CCC(O)C3)nc21` (stereo not drawn), the IC50 in the assay with HEK293 is over 30 µM; in assay [3], over 23 µM. For the same compound, the Activity in assay [1] amounted to 51.1%; in assay [2], 111%; in assay [4], 131%.

Take `Cn1c(=O)c(Oc2ccc(F)cc2F)cc2cnc(N3CCCC(O)C3)nc21` (stereo not drawn): the IC50 in the assay on HEK293 is over 30 µM; in assay [3] it was over 23 µM. Also, the Activity in assay [1] was 88.7%; in assay [2], 104%; in assay [4] it was 38.1%.

In the case of `Cn1c(=O)c(Oc2ccc(F)cc2F)cc2cnc(NCCNS(C)(=O)=O)nc21`, the IC50 is over 30 µM in the assay with HEK293 and 18.9 µM in assay [3]. Besides, the Activity was 12.2% in assay [1], 67.5% in assay [2] and 75.8% in assay [4].

For `Cn1c(=O)c(Oc2ccc(F)cc2F)cc2cnc(NC3CCCC3)nc21`, the IC50 in the assay with HEK293 was over 30 µM; in assay [3] it was 5.93 µM. Further, the Activity was 0% in assay [1], 66.5% in assay [2] and 40% in assay [4]. Moreover, in assay [5], the inhibition result was “inactive”. Further, the inhibition in assay [6] was 61%.

On to `Cn1c(=O)c(Oc2c(Cl)cccc2Cl)cc2cnc(Nc3ccc(N4CCCCC4)cc3)nc21`, for which the IC50 in the assay on HEK293 was over 30 µM; in assay [3], over 23 µM. In addition, the Activity in assay [1] stood at 46.3%; in assay [2], 108%; in assay [4], 129%.

In the case of `Cn1c(=O)c(Oc2ccc(F)cc2F)cc2cnc(N3CCC(CO)CC3)nc21`, the IC50 in the assay with HEK293 is over 30 µM; in assay [3] it was over 23 µM. For the same compound, the figures for the Activity in assay [1], in assay [2] and in assay [4] were 102%, 121% and 91.6%, respectively.

Consider `Cn1c(=O)c(Oc2ccc(F)cc2F)cc2cnc(NC3CC3)nc21`, for which the IC50 with HEK293 is over 30 µM; in assay [3], 7.17 µM. The Activity in assay [1] is 2.61%; in assay [2], 142%; in assay [4] it was 174%.

For `CC(C)Nc1ncc2cc(Oc3ccc(F)cc3F)c(=O)n(C)c2n1`, the IC50 is over 30 µM in the assay with HEK293 and 4.22 µM in assay [3]. The Activity turned out to be 15% in assay [1] and 81% in assay [2].

For the compound `Cn1c(=O)c(Oc2ccc(F)cc2F)cc2cnc(NC3CCNCC3)nc21`, the IC50 was over 30 µM in the assay with HEK293 and 10.9 µM in assay [3]. Further, the figures for the Activity in assay [1], in assay [2] and in assay [4] were 0%, 119% and 81%, respectively.

As for `Cn1c(=O)c(Oc2c(Cl)cccc2Cl)cc2cnc(N3CCC(CO)CC3)nc21`, the half-inhibitory concentration (IC50) was over 30 µM with HEK293 and over 23 µM in assay [3]. For the same compound, the values for the Activity in assay [1], in assay [2] and in assay [4] were 127%, 149% and 119%, respectively.

As for `Cn1c(=O)c(Oc2ccc(F)cc2F)cc2cnc(NC3CCCCC3)nc21`, the half-maximal inhibitory concentration (IC50) in the assay with HEK293 amounted to 14 µM; in assay [3], 16.1 µM. The Activity was 0% in assay [1], 32.4% in assay [2] and 37.6% in assay [4]. Also, the inhibition stood at 59% in assay [5] (concentration not given here) and 93% in assay [6].

Turning to `Cn1c(=O)c(Oc2c(Cl)cccc2Cl)cc2cnc(NCCN3CCOCC3)nc21`, the values for the IC50 (in the assay on HEK293; in assay [3]) were over 30 µM and 27.1 µM, respectively. Moreover, the Activity was 71.3% in assay [1], 114% in assay [2] and 139% in assay [4].

For the compound `Cn1c(=O)c(Oc2c(Cl)cccc2Cl)cc2cnc(N3CCCC(CO)C3)nc21` (stereo not drawn), the IC50 is over 30 µM in the assay with HEK293 and over 23 µM in assay [3]. For the same compound, the values for the Activity in assay [1], in assay [2] and in assay [4] were 99.3%, 103% and 99.3%, respectively.

`NC(=O)c1ccccc1Nc1ccnc(Nc2cccc(O)c2)n1`: the IC50 was over 30 µM in the assay on HEK293 and 0.17 µM in assay [3]. For the same compound, the Activity in assay [1] amounted to 97%; in assay [2] it was 104%.

In the case of `Cn1c(=O)c(Oc2c(Cl)cccc2Cl)cc2cnc(Nc3ccc(N4CCCC4)cc3)nc21`, the figures for the IC50 (in the assay with HEK293; in assay [3]) were over 30 µM and over 23 µM, respectively. Further, the values for the Activity in assay [1], in assay [2] and in assay [4] were 165%, 104% and 136%, respectively.

In the case of `Cn1c(=O)c(Oc2ccc(F)cc2F)cc2cnc(NCc3ccccn3)nc21`, the IC50 was over 30 µM in the assay with HEK293 and over 23 µM in assay [3]. Besides, the results for the Activity in assay [1], in assay [2] and in assay [4] were 68.2%, 86.2% and 68.2%, respectively.

Consider `Cn1c(=O)c(Oc2c(Cl)cccc2Cl)cc2cnc(N3CCC(O)CC3)nc21`, for which the IC50 with HEK293 is over 30 µM; in assay [3] it was over 23 µM. Moreover, the results for the Activity in assay [1], in assay [2] and in assay [4] were 40.5%, 99.1% and 96.3%, respectively.

On to `Cn1c(=O)c(Oc2ccc(F)cc2F)cc2cnc(NCCN3CCOCC3)nc21`, for which the IC50 with HEK293 was over 30 µM; in assay [3], over 23 µM. Besides, the Activity turned out to be 26.7% in assay [1], 102% in assay [2] and 96.1% in assay [4].

On to `Cn1c(=O)c(Oc2ccc(F)cc2F)cc2cnc(N3CCCC(CO)C3)nc21` (stereo not drawn), for which the 50% inhibitory concentration (IC50) is over 30 µM with HEK293 and over 23 µM in assay [3]. Further, the Activity was 79.4% in assay [1], 103% in assay [2] and 21.1% in assay [4].

As for `Cn1c(=O)c(Oc2c(Cl)cccc2Cl)cc2cnc(NCCc3ccccn3)nc21`, the figures for the IC50 (with HEK293; in assay [3]) were over 30 µM and over 23 µM, respectively. Also, the values for the Activity in assay [1], in assay [2] and in assay [4] were 14.3%, 116% and 81.6%, respectively.

On to `Cn1c(=O)c(Oc2c(Cl)cccc2Cl)cc2cnc(Nc3ccc(N4CCC(O)CC4)cc3)nc21`, for which the results for the half-inhibitory concentration (IC50) (in the assay on HEK293; in assay [3]) were over 30 µM and over 23 µM, respectively. The Activity in assay [1] was found to be 9.09%; in assay [2], 74%; in assay [4], 58.9%. Further, the inhibition in assay [5] (concentration not given here) was determined as 54%; in assay [6], 58%.

Turning to `CCOC(=O)N1CCC(Nc2ncc3cc(Oc4ccc(F)cc4F)c(=O)n(C)c3n2)CC1`, the IC50 with HEK293 was over 30 µM; in assay [3], 2.75 µM. Also, the Activity in assay [1] is 0%; in assay [2] it was 42%.

On to `Cn1c(=O)c(Oc2ccc(F)cc2F)cc2cnc(NC(CCO)CCO)nc21` [PAMAPIMOD], for which, in the assay with HEK293, the half-inhibitory concentration (IC50) is over 30 µM. Also, the Activity in assay [1] stood at 14%; in assay [2], 94%.

On to `Cn1c(=O)c(Oc2c(Cl)cccc2Cl)cc2cnc(NCc3ccccn3)nc21`, for which the IC50 is over 30 µM in the assay on HEK293 and over 23 µM in assay [3]. Besides, the values for the Activity in assay [1], in assay [2] and in assay [4] were 2.15%, 115% and 35.3%, respectively.

As to `Cn1c(=O)c(Oc2c(Cl)cccc2Cl)cc2cnc(N3CCCCC3CO)nc21` (stereo not drawn), the values for the IC50 (in the assay on HEK293; in assay [3]) were over 30 µM and over 23 µM, respectively. In addition, the Activity in assay [1] worked out at 110%; in assay [2], 118%; in assay [4], 110%.

`Cn1c(=O)c(Oc2c(Cl)cccc2Cl)cc2cnc(N3CCC(O)C3)nc21` (stereo not drawn): the IC50 with HEK293 is over 30 µM; in assay [3] it was over 23 µM. The results for the Activity in assay [1], in assay [2] and in assay [4] were 74.5%, 82.5% and 74.5%, respectively.

In the case of `O=C(O)c1ccccc1Nc1ccnc(Nc2cccc(F)c2)n1`, the IC50 is over 30 µM with HEK293 and 0.05 µM in assay [3]. Besides, the values for the Activity in assay [1] and in assay [2] were 69% and 46%, respectively.

Take `Cn1c(=O)c(Oc2c(Cl)cccc2Cl)cc2cnc(N3CCCC(O)C3)nc21` (stereo not drawn): the values for the IC50 (in the assay with HEK293; in assay [3]) were over 30 µM and over 23 µM, respectively. The Activity in assay [1] worked out at 93.6%; in assay [2], 133%; in assay [4], 36.2%.

Turning to `Cn1c(=O)c(Oc2ccc(F)cc2F)cc2cnc(NC3CCCCCC3)nc21`, the IC50 was over 26.7 µM in the assay with HEK293 and 6.73 µM in assay [3]. Besides, the values for the Activity in assay [1], in assay [2] and in assay [4] were 0%, 119% and 84%, respectively.
